We go through 20 compounds from patent US6605614B2, “[1,8] naphthyridine derivatives having antiviral activity” (BioChem Pharma Inc., priority 1999, dated 2003).

Counter-ions that a name gives are not always drawn.

A short description of series [1]: Compound toxicity, WST-1, non-infected MDBK cells. The format is cell-based. Particulars: bovine, 4 days incubation, WST-1 readout. Here is the method: To determine the anti-viral effect of the compounds, MDBK cells were infected with the cytopathic strain of BVDV(NADL) using a 0.006 to 0.01 MOI. 3000 cells were then seeded in each well of a 96-well plate containing the compound. The final volume was 200 μl of media per wells. […] Cell culture was then incubated for another 2 hrs at 37° C., after which 20 μl of 10% SDS was added to each well in order to inactivate the virus and the OD at 450 nm was determined using a microplate reader (Dynatech MR5000).
In parallel, the same experiment was performed using non-infected cells to determine the compound toxicity. […]

The subject of a further series is BVDV(NADL). Put plainly: WST-1 based BVDV anti-viral assay (CPE reduction in infected MDBK cells). The format is cell-based. As to conditions: Bovine viral diarrhea virus isolates and strains, 96 h, MDBK cells infected with cytopathic BVDV (NADL), MOI 0.006 to 0.01, 4 days incubation, WST-1 readout, read-out: BVDV antiviral effect IC50. Here is the method: Currently, the WST-1 based BVDV assay, is being used as surrogate to evaluate potential anti-HCV agents since BVDV (bovine viral diarrhea virus) shares functional homology with the HCV.
To determine the anti-viral effect of the compounds, MDBK cells were infected with the cytopathic strain of BVDV(NADL) using a 0.006 to 0.01 MOI. 3000 cells were then seeded in each well of a 96-well plate containing the compound. The final volume was 200 μl of media per wells. […] Cell culture was then incubated for another 2 hrs at 37° C., after which 20 μl of 10% SDS was added to each well in order to inactivate the virus and the OD at 450 nm was determined using a microplate reader (Dynatech MR5000). […]
In general terms: Tetrazolium assays rely on reduction of a dye to a coloured formazan, in cell work by metabolically active cells.

Regarding `O=C(Nc1ccccn1)c1ccc2cccnc2n1` [Compound #15, [1,8] naphthyridine-2-carboxylic acid pyridin-2-ylamide], in series [1], the cytotoxic concentration (CC50) (as a rule, the concentration giving 50% cytotoxicity) at 4 days was more than 79.9 µM.

For `O=C(NCc1cccnc1)c1ccc2cccnc2n1` [Compound #12, [1,8] naphthyridine-2-carboxylic acid (pyridin-3-ylmethyl)-amide], the concentration for half-maximal inhibition (IC50) (commonly the concentration at which inhibition is half-maximal) with BVDV(NADL) was approximately 18.9 µM. In series [1], this compound showed a CC50 at 4 days of more than 75.7 µM.

On to `O=C(NCc1ccccn1)c1ccc2cccnc2n1` [Compound #13, [1,8] naphthyridine-2-carboxylic acid (pyridin-2-ylmethyl)-amide], for which, in series [1], the CC50 at 4 days is more than 75.7 µM.

With `O=C(NCc1cccc(C(F)(F)F)c1)c1ccc2cccnc2n1` [Compound #31, [1,8] naphthyridine-2-carboxylic acid (phenylmethyl-3-trifluoromethyl)-amide], in the series on BVDV(NADL), the half-inhibitory concentration (IC50) was approximately 3 µM. Also, in series [1], the CC50 at 4 days was more than 60.4 µM.

Consider `COc1ccc(CNC(=O)c2ccc3cccnc3n2)cc1` [Compound #3, [1,8] naphthyridine-2-carboxylic acid 4-methoxy-benzylamide], for which the IC50 with BVDV(NADL) is approximately 1.7 µM. The same compound had a CC50 at 4 days in series [1] of more than 68.2 µM.

As for `O=C(Nc1cccc(C(F)(F)F)c1)c1ccc2cccnc2n1` [Compound #30, [1,8] naphthyridine-2-carboxylic acid (phenyl-3-trifluoromethyl)-amide], the half-maximal inhibitory concentration (IC50) with BVDV(NADL) was approximately 0.6 µM. Besides, in series [1], the half-maximal cytotoxic concentration (CC50) at 4 days worked out at 6.3 µM.

For `COc1cccc(CNC(=O)c2ccc3cccnc3n2)c1` [Compound #4, [1,8] naphthyridine-2-carboxylic acid 3-methoxy-benzylamide], the half-maximal inhibitory concentration (IC50) in the series on BVDV(NADL) was approximately 6.8 µM. In series [1], this compound yielded a CC50 at 4 days of more than 68.2 µM.

Turning to `CC[C@@H](C)Oc1ccccc1CNC(=O)c1ccc2cccnc2n1` [Compound #10, (−)-[1,8] naphthyridine-2-carboxylic acid 2-sec-butoxy-benzylamide], in the series on BVDV(NADL), the IC50 is more than 6 µM. Also, in series [1], the cytotoxic concentration (CC50) at 4 days was more than 6 µM.

Regarding `COc1cc(OC)c(CNC(=O)c2ccc3cccnc3n2)c(OC)c1` [Compound #5, [1,8] naphthyridine-2-carboxylic acid 2,4,6-trimethoxy-benzylamide], the IC50 with BVDV(NADL) is approximately 1.1 µM. Further, in series [1], the CC50 at 4 days is more than 56.6 µM.

For `COc1ccccc1CNC(=N)c1ccc2cccnc2n1` [Compound #27, N-(2-methoxy-benzyl)-[1,8]naphthyridine-2-carboxamidine trifluoroacetate], the half-inhibitory concentration (IC50) in the series with BVDV(NADL) is approximately 0.33 µM. In series [1], this compound came in with a CC50 at 4 days of more than 63.2 µM.

In series [1], `O=C(Nc1ccccc1)c1ccc2cccnc2n1` [Compound #28, [1,8] naphthyridine-2-carboxylic acid phenyl-amide] displayed a CC50 at 4 days of more than 80.2 µM.

Turning to `O=C(Nc1nccs1)c1ccc2cccnc2n1` [Compound #22, [1,8] naphthyridine-2-carboxylic acid thiazol-2-ylamide], in series [1], the cytotoxic concentration (CC50) at 4 days is more than 78 µM.

In the case of `CC(C)Oc1ccccc1CNC(=O)c1ccc2cccnc2n1` [Compound #8, [1,8] naphthyridine-2-carboxylic acid 2-isopropoxy-benzylamide], the 50% inhibitory concentration (IC50) with BVDV(NADL) is less than 62.2 µM. Also, the CC50 at 4 days in series [1] was more than 62.2 µM.

In the case of `O=C(NCc1ccccc1F)c1ccc2cccnc2n1` [Compound #16, [1,8] naphthyridine-2-carboxylic acid 2-fluoro-benzylamide], in the series on BVDV(NADL), the half-maximal inhibitory concentration (IC50) was approximately 1.1 µM. Also, the CC50 at 4 days in series [1] was more than 71.1 µM.

In the case of `O=C(Nc1ccccc1F)c1ccc2cccnc2n1` [Compound #24, [1,8] naphthyridine-2-carboxylic acid (2-fluoro-phenyl)-amide], the 50% inhibitory concentration (IC50) with BVDV(NADL) was approximately 7.5 µM. In addition, the CC50 at 4 days in series [1] was more than 74.8 µM.

With `O=C(Nc1nc2ccccc2s1)c1ccc2cccnc2n1` [Compound #23, [1,8] naphthyridine-2-carboxylic acid benzothiazol-2-ylamide], the cytotoxic concentration (CC50) at 4 days in series [1] was more than 6.5 µM.

As for `O=C(NCc1ccccc1Cl)c1ccc2cccnc2n1` [Compound #17, [1,8] naphthyridine-2-carboxylic acid 2-chloro-benzylamide], in the series with BVDV(NADL), the half-maximal inhibitory concentration (IC50) was approximately 3.6 µM. The CC50 at 4 days in series [1] is more than 67.2 µM.

For `O=C(NCc1ccccc1)c1ccc2cccnc2n1` [Compound #2, [1,8] naphthyridine-2-carboxylic acid benzylamide], the IC50 with BVDV(NADL) was less than 76 µM. For the same compound, the CC50 at 4 days in series [1] is more than 76 µM.

As for `O=C(Nc1cccc([N+](=O)[O-])c1)c1ccc2cccnc2n1` [Compound #19, [1,8] naphthyridine-2-carboxylic acid (3-nitrophenyl)-amide], the IC50 in the series on BVDV(NADL) is approximately 1.7 µM. In series [1], this compound yielded a cytotoxic concentration (CC50) at 4 days of more than 68 µM.

As to `O=C(Nc1cccnc1)c1ccc2cccnc2n1` [Compound #29, [1,8] naphthyridine-2-carboxylic acid pyridin-3-yl-amide], the IC50 in the series with BVDV(NADL) is approximately 3.2 µM. The CC50 at 4 days in series [1] was more than 79.9 µM.
